Experiments:
HCT116 = assay: MTT assay, antiproliferative activity against HCT116 cells; assay type: cell-based; settings: Homo sapiens, HCT-116, 72 h, mean of at least two determinations
From the text: (§1) All synthesized target compounds were firstly tested for their antiproliferative activity against five human cancer cell lines, PC3, A549, HCT116, HL60, and KB, using MTT assay.
(§2) Human prostate cancer PC3 cells, lung adenocarcinoma epithelial A549 cells, colon cancer HCT116 cells, promyelocytic leukemia HL60 cells and nasopharyngeal carcinoma KB cells were obtained from the cell bank of the Institute of Biochemistry and Cell Biology, Chinese Academy of Sciences (Shanghai, China). The inhibitory activity of target compounds against tested cancer cell lines was measured using the MTT assay. PC3, A549, HCT116, HL60, and KB cancer cell lines were cultured in RPMI-1640 medium (Invitrogen, Carlsbad, CA, USA) with heat-inactivated 10% fetal bovine serum, penicillin (100 units/mL) and streptomycin (100 µg/mL) and incubated in an atmosphere with 20% oxygen and 5% carbon dioxide at 37°C. All tested compounds were dissolved in DMSO at concentrations of 10.0 mg/mL and diluted to appropriate concentrations. Cells were plated in 96-well plates for 24 h and subsequently treated with different concentrations of all tested compounds for 72 h. Viable cells were determined using 3-(4,5-dimethylthiazol-2-yl)-2,5-diphenyltetrazolium bromide assay kit (MTT, Sigma) according to operation instructions provided by the manufacturer. The concentration of drug causing 50% inhibition in absorbance compared with control cells (IC50) was calculated using the software of dose-effect analysis with microcomputers.

A549 = assay: MTT assay, antiproliferative activity against A549 cells; assay type: cell-based; settings: Homo sapiens, 72 h, mean of at least two determinations
From the text: as §1, §2

HL60 = assay: MTT assay, antiproliferative activity against HL60 cells; assay type: cell-based; settings: Homo sapiens, HL-60, 72 h, mean of at least two determinations
From the text: as §1, §2

PC3 = assay: MTT assay, antiproliferative activity against PC3 cells; assay type: cell-based; settings: Homo sapiens, PC-3, 72 h, mean of at least two determinations
From the text: as §1, §2

KB = assay: MTT assay, antiproliferative activity against KB cells; assay type: cell-based; settings: Homo sapiens, 72 h, mean of at least two determinations
From the text: as §1, §2

| SMILES | IC50 (HCT116) | IC50 (A549) | IC50 (HL60) | melting point | IC50 (PC3) | IC50 (KB) |
| --- | --- | --- | --- | --- | --- | --- |
| O=C(c1ccccc1)N1CCN(c2nc3ccccc3nc2S(=O)(=O)c2ccc(Br)cc2)CC1 [Compound 32, 2-(4-Benzoylpiperazin-1-yl)-3-(4-bromophenylsulfonyl)quinoxaline] | 10.1 µM | 3.96 µM | 17.4 µM | 204 to 205 °C | 1.4 µM | 3.37 µM |
| Cc1ccc(S(=O)(=O)N2CCN(c3nc4ccccc4nc3S(=O)(=O)c3ccc(Br)cc3)CC2)cc1 [Compound 47, 2-(4-(4-Methylphenylsulfonyl)piperazin-1-yl)-3-(4-bromophenylsulfonyl)-quinoxaline] | 5.07 µM | 19.5 µM | 10.3 µM | 214 to 216 °C | 4.89 µM | 2.73 µM |
| COc1ccc(S(=O)(=O)c2nc3ccccc3nc2N2CCN(C)CC2)cc1 [Compound 16, 2-(4-Methylpiperazin-1-yl)-3-(4-methoxyphenylsulfonyl)quinoxaline] | 2.37 µM | 8.57 µM | 0.54 µM | 121 to 124 °C | 1.55 µM | 2.53 µM |
| CC(=O)N1CCN(c2nc3ccccc3nc2S(=O)(=O)c2ccc(C)cc2)CC1 [Compound 10, 2-(4-Acetylpiperazin-1-yl)-3-(4-methylphenylsulfonyl)quinoxaline] | 2.6 µM | 2.42 µM | 3.28 µM | 148 to 150 °C | 2.27 µM | 3.89 µM |
| CC(=O)N1CCN(c2nc3ccccc3nc2S(=O)(=O)c2ccc(F)cc2)CC1 [Compound 13, 2-(4-Acetylpiperazin-1-yl)-3-(4-fluorophenylsulfonyl)quinoxaline] | 4.34 µM | 7.12 µM | 1.78 µM | 108 to 112 °C | 3.17 µM | 6.15 µM |
| O=c1cc(N2CCOCC2)oc2c(-c3ccccc3)cccc12 [LY294002, 2-(4-morpholinyl)-8-phenyl-4H-1-benzopyran-4-one, reference compound] | 56 µM | 89.7 µM | 9.94 µM |  | 61.4 µM | 44.8 µM |
| COc1ccc(S(=O)(=O)c2nc3ccccc3nc2N2CCNCC2)cc1 [Compound 21, 2-(Piperazin-1-yl)-3-(4-methoxyphenylsulfonyl)quinoxaline] | 0.63 µM | 1.37 µM | 0.16 µM | 142 to 144 °C | 0.68 µM | 11.5 µM |
| COc1ccc(S(=O)(=O)c2nc3ccccc3nc2N2CCN(S(=O)(=O)c3ccc(C)cc3)CC2)cc1 [Compound 46, 2-(4-(4-Methylphenylsulfonyl)piperazin-1-yl)-3-(4-methoxyphenylsulfonyl)-quinoxaline] | 14.2 µM | > 50 µM | 15 µM | 172 to 175 °C | 6.2 µM | 2.35 µM |
| Cc1ccc(S(=O)(=O)c2nc3ccccc3nc2N2CCN(CCCN3CCOCC3)CC2)cc1 [Compound 50, 2-(4-(3-Morpholinopropyl)piperazin-1-yl)-3-(4-methylphenylsulfonyl)quinoxaline] | 0.31 µM | 0.51 µM |  |  | 3.83 µM |  |
| O=S(=O)(c1ccc(F)cc1)c1nc2ccccc2nc1N1CCN(CCCN2CCOCC2)CC1 [Compound 53, 2-(4-(3-Morpholinopropyl)piperazin-1-yl)-3-(4-fluorophenylsulfonyl)quinoxaline] | 0.93 µM | 1.12 µM |  |  | 4.8 µM |  |
| COc1ccc(S(=O)(=O)c2nc3ccccc3nc2N2CCC(C(N)=O)CC2)cc1 [Compound 6, 2-(4-Carbamoylpiperidin-1-yl)-3-(4-methoxyphenylsulfonyl)quinoxaline] | 2.55 µM | 17 µM | 0.21 µM | 185 to 187 °C | 2.28 µM | 10.2 µM |
| O=C(c1ccccc1)N1CCN(c2nc3ccccc3nc2S(=O)(=O)c2ccc(F)cc2)CC1 [Compound 33, 2-(4-Benzoylpiperazin-1-yl)-3-(4-fluorophenylsulfonyl)quinoxaline] | 8.88 µM | 1.16 µM | 6.95 µM | 200 to 202 °C | 1.77 µM | 1.22 µM |
| Cc1ccc(S(=O)(=O)c2nc3ccccc3nc2N2CCN(C(=O)c3ccc(Cl)cc3)CC2)cc1 [Compound 35, 2-(4-(4-Chlorobenzoyl)piperazin-1-yl)-3-(4-methylphenylsulfonyl)quinoxaline] | 9.84 µM | 21.6 µM | 6.09 µM | 188 to 190 °C | 3.61 µM | 2.84 µM |
| Cc1ccc(S(=O)(=O)c2nc3ccccc3nc2N2CCN(C(=O)c3ccccc3)CC2)cc1 [Compound 30, 2-(4-Benzoylpiperazin-1-yl)-3-(4-methylphenylsulfonyl)quinoxaline] | 6.9 µM | 8.03 µM | 17.3 µM | 182 to 185 °C | 5.81 µM | 3.67 µM |
| NC(=O)C1CCN(c2nc3ccccc3nc2S(=O)(=O)c2ccc(F)cc2)CC1 [Compound 8, 2-(4-Carbamoylpiperidin-1-yl)-3-(4-fluorophenylsulfonyl)quinoxaline] | 7.13 µM | 10.2 µM | 4.15 µM | 198 to 202 °C | 4.36 µM | 6.45 µM |
| COc1ccc(S(=O)(=O)c2nc3ccccc3nc2N2CCN(CCCN3CCOCC3)CC2)cc1 [Compound 51, 2-(4-(3-Morpholinopropyl)piperazin-1-yl)-3-(4-methoxyphenylsulfonyl)-quinoxaline] | 2.59 µM | 2.1 µM |  |  | 9.3 µM |  |
| CC(=O)N1CCN(c2nc3ccccc3nc2S(=O)(=O)c2ccc(Br)cc2)CC1 [Compound 12, 2-(4-Acetylpiperazin-1-yl)-3-(4-bromophenylsulfonyl)quinoxaline] | 0.53 µM | 9.79 µM | 0.12 µM | 174 to 178 °C | 3.03 µM | 4.3 µM |
| Cc1ccc(S(=O)(=O)c2nc3ccccc3nc2N2CCC(C(N)=O)CC2)cc1 [Compound 5, 2-(4-Carbamoylpiperidin-1-yl)-3-(4-methylphenylfsulfonyl)quinoxaline] | 1.2 µM | 27.4 µM | 0.14 µM | 200 to 203 °C | 2.28 µM | 11.8 µM |
| CC1CN(c2nc3ccccc3nc2S(=O)(=O)c2ccc(F)cc2)CCN1 (stereo not drawn) [Compound 28, 2-(3-Methylpiperazin-1-yl)-3-(4-fluorophenylsulfonyl)quinoxaline] | 2.2 µM | 3.45 µM | 1.95 µM | 119 to 123 °C | 2.34 µM | 2.03 µM |
| COc1ccc(S(=O)(=O)c2nc3ccccc3nc2N2CCN(C(=O)c3ccc(Cl)cc3)CC2)cc1 [Compound 36, 2-(4-(4-Chlorobenzoyl)piperazin-1-yl)-3-(4-methoxyphenylsulfonyl)quinoxaline] | 9.62 µM | > 50 µM | 5.58 µM | 179 °C | 2.43 µM | 6.03 µM |
| Cc1ccc(S(=O)(=O)c2nc3ccccc3nc2N2CCNCC2)cc1 [Compound 20, 2-(Piperazin-1-yl)-3-(4-methylphenylsulfonyl)quinoxaline] | 0.47 µM | 14.4 µM | 0.12 µM |  | 1.32 µM | 7.26 µM |
| COc1ccc(S(=O)(=O)c2nc3ccccc3nc2N2CCN(C(=O)c3ccccc3)CC2)cc1 [Compound 31, 2-(4-Benzoylpiperazin-1-yl)-3-(4-methoxyphenylsulfonyl)quinoxaline] | 17.2 µM | 7.43 µM | 6.93 µM | 166 to 169 °C | 3.63 µM | 5.65 µM |
| NC(=O)C1CCN(c2nc3ccccc3nc2S(=O)(=O)c2ccc(Br)cc2)CC1 [Compound 7, 2-(4-Carbamoylpiperidin-1-yl)-3-(4-bromophenylsulfonyl)quinoxaline] | 1.61 µM | 12.1 µM | 0.15 µM | 209 to 210 °C | 1.17 µM | 4.22 µM |
| O=S(=O)(c1ccc(F)cc1)c1nc2ccccc2nc1N1CCNCC1 [Compound 23, 2-(Piperazin-1-yl)-3-(4-fluorophenylsulfonyl)quinoxaline] | 2.43 µM | 2.79 µM | 1.39 µM |  | 2.05 µM | 4.58 µM |
| Cc1ccc(S(=O)(=O)N2CCN(c3nc4ccccc4nc3S(=O)(=O)c3ccc(F)cc3)CC2)cc1 [Compound 48, 2-(4-(4-Methylphenylsulfonyl)piperazin-1-yl)-3-(4-fluorophenylsulfonyl)-quinoxaline] | 3.76 µM | 48.2 µM | 9.48 µM | 172 to 174 °C | 3.39 µM | 5.17 µM |
